According to paper PMC7232676, “Fragment-Based Design of Mycobacterium tuberculosis InhA Inhibitors” (Journal of Medicinal Chemistry, 2020):
Like-named read-outs stand apart in the source and are kept apart here.

Assays:
[1] = biological target: T1, InhA (Mycobacterium tuberculosis, UniProt P9WGR1); test: Differential scanning fluorimetry (fluorescence-based thermal-shift assay); assay type: binding; settings: for ΔTm (thermal shift of InhA): fragments 5 mM, InhA 10 μM, NAD+ 1 mM
Experimental: Differential scanning fluorimetry (DSF) was used to screen an in-house library of 800 rule-of-three-compliant fragments. A saturating concentration of the cofactor in oxidized form (1 mM NAD^+) was used in all the experiments to ensure that the cofactor binding site would be occupied by NAD^+ and that fragments would not bind there. […] Upon screening of the fragment library, a hit was defined where the melting point was increased by at least +3 °C at a concentration of 5 mM (Figure 1a).
The substrate binding regions of InhA are divided into three sites: site I, site II, and site III.
Differential scanning fluorimetry was used to screen a library of 800 fragments. The assay was performed in a 96 well plate format using a CFX Connect (Bio-Rad). Each well contained a solution of 10 μM InhA, 1 mM NAD^+, HEPES (50 mM), NaCl (150 mM), pH 7.5, 5× Sypro Orange, 5% DMSO, and fragments at 5 mM. […] Controls were made in quadruplicates for all the experiments.

[2] = biological target: T1, InhA; test: InhA enzymatic assay (NADH oxidation at 340 nm, 2-trans-octanoyl-CoA substrate); assay type: biochemical; settings: for LE (ligand efficiency): LE = (1.37 × pIC50)/HA; for IC50: average of three experiments
Experimental: The identified fragment hits were further evaluated by an InhA enzymatic assay using 2-trans-octanoyl-CoA as a substrate.[22]
The carboxylic acid in fragment 1 (P1) was replaced by an isosteric sulfonamide as a linker to synthesize compound 6 (Figure 2b). Docking experiments with Glide XP[23] […] All the synthesized compounds were tested at a concentration of 100 μM using the InhA enzymatic assay.
InhA activity was followed by a colorimetric assay that measured the oxidation of NADH at 340 nm in the presence of 2-trans-octanoyl-CoA as described before in a buffer that contained 30 mM PIPES, pH 7.5, 50 mM NaCl, 0.1 mM EDTA, and 100 nM InhA.[26] This was preincubated for 10 min at room temperature with 0.25 mM NADH and varying concentrations of the compounds with 1% (v/v) DMSO in a 150 μL reaction volume. The reaction was started by the addition of 2-trans-octanoyl-CoA at a final concentration of 1.5 mM, prepared as described previously.[22] Reactions were followed for 20 min using a plate reader (CLARIOstar, BMG LABTECH).

[3] = test system: M. tuberculosis H37Ra; test: Growth inhibition of M. tuberculosis H37Ra, 48 h cultivation; assay type: cell-based, Mycobacterium tuberculosis; settings: for inhibition at 200 µM: 200 μM compound in the media, 48 h cultivation
Experimental: (§1) Further analysis of the effect on the synthesis of mycolic acids by metabolic labeling[24],[25] of the model strain M. tuberculosis H37Ra with ^14C acetate was also explored. A 48 h cultivation in the presence of 200 μM of the compounds in the media led to 84% growth inhibition for compound 19; 40% and 33% growth inhibition for compounds 14 and 23, respectively; 38% growth inhibition for compound 24 and isoniazid; 23% growth inhibition for compounds 25 and 26.
(§2) The culture of M. tuberculosis H37Ra was grown statically at 37 °C in Middlebrook 7H9 broth (Difco) supplemented with albumin–dextrose–catalase and 0.05% Tween 80. When the culture reached the OD600nm value of 0.290, it was divided into 10 mL aliquots and tested compounds dissolved in DMSO were added at 200 μM final concentrations, while isoniazid that served as a control inhibitor was at 40 μM. The final concentration of DMSO in each culture was at 1%. After 24 h of cultivation with shaking (120 rpm) in the presence of tested inhibitors, ^14C acetate (specific activity of 106 mCi/mmol) was added at a final concentration of 0.5 μCi/mL and the cells were cultivated for the next 24 h.

[4] = test system: trehalose monomycolates and dimycolates in M. tuberculosis H37Ra; test: Metabolic labeling with 14C acetate, TLC of lipid profiles (TMM, TDM); assay type: cell-based, Mycobacterium tuberculosis; settings: 200 μM compound, 14C acetate labeling
Description: (§3) Figure 5 (A) TLC of the metabolic labeling experiments of M. tuberculosis H37Ra with ^14C acetate treated with the compounds 14, 19, and 23–26 for the analysis of mycolic acid inhibition. Fatty acid methyl esters, FAME; mycolic acid methyl esters, MAME; isoniazid, INH. (B) TLC of the metabolic labeling experiments of M. tuberculosis H37Ra with ^14C acetate treated with the compounds 14, 19, and 23–26 for the analysis of the lipid inhibition. Trehalose monomycolates, TMM; trehalose dimycolates, TDM; phosphatidylethanolamine, PE; cardiolipin, CL; isoniazid, INH.
as §2, with “After 24 h of cultivation with shaking (120 rpm) in the presence of tested inhibitors, ^14C acetate (specific activity of 106 mCi/mmol) was added at a final concentration of 0.5 μCi/mL and the cells were cultivated for the next 24 h.” left out
Lipids were extracted from whole cells as described earlier with minor modifications.[24] […] Five μL of each lipid sample was loaded on the thin-layer chromatography (TLC) silica gel plates (F254, Merck); lipids were separated in chloroform/methanol/water [20:4:0.5] and detected by autoradiography.

[5] = test system: synthesis of mycolic acids in M. tuberculosis H37Ra; test: Metabolic labeling with 14C acetate, TLC of FAME/MAME (mycolic acid synthesis); assay type: cell-based, Mycobacterium tuberculosis; settings: 14C acetate labeling
Experimental: as §1, §3
The culture of M. tuberculosis H37Ra was grown statically at 37 °C in Middlebrook 7H9 broth (Difco) supplemented with albumin–dextrose–catalase and 0.05% Tween 80. […]
Fatty acid methyl esters (FAMEs) and mycolic acids methyl esters (MAMEs) were prepared from whole cells harvested from 4 mL culture aliquots as previously described.[32] […] 3× and detected by autoradiography.

[6] = 100 μM compound, read-out: Inh % (inhibition percentage of InhA)
[7] = supplementary CSV, read-out: % inhibition
[8] = Mycobacterium tuberculosis, H37RA

T1 sequence (P9WGR1 whole entry, looked up, the tested form may be a part): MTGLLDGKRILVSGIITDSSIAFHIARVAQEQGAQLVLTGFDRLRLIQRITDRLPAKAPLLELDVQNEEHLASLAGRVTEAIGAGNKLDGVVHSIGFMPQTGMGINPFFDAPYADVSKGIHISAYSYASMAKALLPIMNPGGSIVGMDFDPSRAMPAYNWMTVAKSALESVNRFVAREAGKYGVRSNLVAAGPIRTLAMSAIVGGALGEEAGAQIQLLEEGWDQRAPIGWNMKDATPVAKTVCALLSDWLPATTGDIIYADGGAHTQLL

Row | SMILES | DTm [1] | ΔTm (thermal shift of InhA) [1] | inhibition at 100 µM [2, 6] | IC50 [2] | inhibition at 100 µM [2, 7] | inhibition at 200 µM [3, 8] | also measured
1 | O=C(O)/C=C/c1cccc(C(F)(F)F)c1 [compound 1, (E)-3-(3-(trifluoromethyl)phenyl)acrylic acid] | 3.2 oC |  |  |  |  |  | Inhibition of InhA ([2]; 2 mM fragment, triplicate): 0%
2 | O=C(O)c1ccccc1C(=O)c1ccc(Cl)c([N+](=O)[O-])c1 [compound 2, 2-(4-chloro-3-nitrobenzoyl)benzoic acid] | 4.2 oC | +4.2 °C |  |  |  |  | 
3 | O=C(O)c1cc2ccccc2cc1O [compound 3, 3-hydroxy-2-naphthoic acid] | 4.2 oC | +4.2 °C |  |  |  |  | 
4 | O=C(O)CCc1cccc(Cl)c1 [compound 4, 3-(3-chlorophenyl)propanoic acid] | 3 oC | +3.0 °C |  |  |  |  | 
5 | O=C(O)c1ccccc1-n1cccn1 [compound 5, 2-(1H-pyrazol-1-yl)benzoic acid] | 6 oC | +6.0 °C |  |  |  |  | 
6 | NCc1ccc(NS(=O)(=O)/C=C/c2cccc(C(F)(F)F)c2)cc1 [compound 14, (E)-N-(4-(Aminomethyl)phenyl)-2-(3-(trifluoromethyl)phenyl)ethene-1-sulfonamide] |  |  | > 90% | 9 µM | > 90% | 40% | LE (ligand efficiency) [2]: 0.29; fold increase of the potency from compound 6 ([2]; compared to compound 6): 10 fold
7 | NCc1cccc(NS(=O)(=O)/C=C/c2cccc(C(F)(F)F)c2)c1 [compound 19, (E)-N-(3-(Aminomethyl)phenyl)-2-(3-(trifluoromethyl)phenyl)ethene-1-sulfonamide] |  |  | > 90% | 4 µM | > 90% | 84% | amount of trehalose dimycolates (TDM) [4]: decrease; amount of trehalose monomycolates (TMM) [4]: accumulation; LE (ligand efficiency) [2]: 0.31; effect on synthesis of mycolic acids ([5]; 200 μM compound): slight inhibition
8 | Cc1c(S(=O)(=O)Nc2cccc(CN)c2)sc2ccc(Cl)cc12 [compound 23, N-(3-(Aminomethyl)phenyl)-5-chloro-3-methylbenzo[b]thiophene-2-sulfonamide] |  |  | > 90% |  | > 90% | 33% | activity against M. tuberculosis [3]: inactive
9 | Cc1c(S(=O)(=O)Nc2cccc(CN)c2)sc2ccc(F)cc12 [compound 24, N-(3-(Aminomethyl)phenyl)-5-fluoro-3-methylbenzo[b]thiophene-2-sulfonamide] |  |  | > 90% | 0.25 µM | > 90% | 38% | LE (ligand efficiency) [2]: 0.40
10 | NCc1cccc(NS(=O)(=O)c2cc3ccccc3s2)c1 [compound 25, N-(3-(Aminomethyl)phenyl)benzo[b]thiophene-2-sulfonamide] |  |  | > 90% | 6 µM | > 90% | 23% | 
11 | NCc1cccc(NS(=O)(=O)c2cc3ccccc3o2)c1 [compound 26, N-(3-(Aminomethyl)phenyl)benzofuran-2-sulfonamide] |  |  |  |  | 66% | 23% | inhibition at 100 µM ([2]; read-out: Inh % (inhibition percentage of InhA)): 66%
12 | NNC(=O)c1ccncc1 [isoniazid, reference compound] |  |  |  |  |  |  | inhibition at 40 µM ([3]; Mycobacterium tuberculosis, H37RA, 48 h, read-out: growth inhibition): 38%; effect on synthesis of mycolic acids ([5]; isoniazid control at 40 μM): complete abolition
